Like-named read-outs stand apart in the source and are kept apart here.
Assays:
[1] = tested on: A. baumannii 4106 (AB4106); assay: Broth microdilution, colistin potentiation; assay type: cell-based
Description: (§1) Broth microdilution method for measurement of colistin potentiation: Bacteria were cultured for 4 to 6 hours in CAMHB and diluted to 1.04×10^6 CFU/mL for AB 4106 and 1.96×10^6 CFU/mL for KP B9 in fresh CAMHB. To aliquots (4 mL) was added compound from stock solutions in DMSO. One aliquot was not dosed to allow measurement of the colistin MIC in the absence of compound. A 1 mL aliquot of each sample was dosed with colistin, and from this 200 μL was dispensed into the first row of a 96-well microtiter plate in which all but the final row of subsequent wells was prefilled with 100 μL of the corresponding compound dosed bacterial suspension The final row was filled with media to act as a sterility control and blank. Row one wells were mixed 6-7 times, then, 100 μL was withdrawn and transferred to row two. Row two wells were mixed 6-7 times followed by a 100 μL transfer from row two to row three. This procedure was used to serially dilute the rest of the rows of the microtiter plate, excluding the last prefilled row, which was used to measure growth in the presence of compound alone. Plates were then sealed with GLAD
(§2) Press'n Seal and incubated under stationary conditions at 37° C. […] MIC values were determined as the minimum concentration required to achieve 90% growth inhibition compared to growth in untreated wells.

AB 4106 = assay: Broth microdilution, standalone MIC of compound; assay type: cell-based, A. baumannii; settings: Acinetobacter baumannii, 16 h, read-out: MIC of compound alone, AB 4106
Description: Broth microdilution method for the determination of minimum inhibitory concentrations: Bacteria were cultured for 4 to 6 hours in CAMHB and subcultured to 1.04×10^6 CFU/mL for AB 4106 and 1.96×10^6 CFU/mL for KP B9 in fresh CAMHB. To aliquots (1 mL) was added compound from stock solutions in DMSO, such that the compound concentration equaled the highest concentration tested. Samples were then dispensed (200 μL) into the first row of a 96-well microtiter plate in which all but the final row of subsequent wells were prefilled with 100 μL of the untreated bacterial subculture. The final row was filled with media to act as a sterility control and blank. Row one wells were mixed 6-7 times, then, 100 μL was withdrawn and transferred to row two. Row two wells were mixed 6-7 times followed by a 100 μL transfer from row two to row three. This procedure was used to serially dilute the rest of the rows of the microtiter plate, excluding the last prefilled row, which was used to measure growth in the absence of compound. Plates were then sealed with GLAD Press'n Seal and incubated under stationary conditions at 37 C. […] MIC values were determined as the minimum concentration required to achieve 90% growth inhibition compared to growth in untreated wells.

AB4106 and KPB9 = assay: Initial screen for colistin resistance suppression, statements in words for both strains; assay type: cell-based, A. baumannii and K. pneumoniae; settings: compound at 5 μM
Description: as §1, §2

[2] = compound at 5 μM, colistin alone 2048 μg/mL

| SMILES | Colistin MIC fold reduction, AB 4106 ([1]; compound at 1 μM) [fold] | Colistin MIC fold reduction, AB 4106 ([1]; compound at 3 μM) [fold] | Colistin MIC fold reduction, AB 4106 [1, 2] [fold] | MIC (AB 4106; standalone, no colistin) [µM] | Colistin potentiation activity in words, compared to IMD-0354 (AB4106 and KPB9) | MIC (AB 4106) [µM] | Colistin potentiation activity in words, AB4106 ([1]; compound at 5 μM) |
| --- | --- | --- | --- | --- | --- | --- | --- |
| Cc1cc(C)cc(NC(=O)c2cc(Cl)ccc2O)c1 [Compound 20] | 16 | 512 | 1024 | > 200 | – | – | – |
| Cc1cc(C)cc(NC(=O)c2ccc(C(F)(F)F)cc2O)c1 [Compound 57, N-(3,5-dimethylphenyl)-2-hydroxy-4-(trifluoromethyl)benzamide] | – | – | 256 | > 200 | – | – | – |
| O=C(Nc1cc(Br)cc(Br)c1)c1cc(Cl)cc(Cl)c1O [Compound 60, 3,5-dichloro-N-(3,5-dibromophenyl)-2-hydroxybenzamide] | 128 | 512 | 2048 | 50 | – | – | – |
| O=C(Nc1cc(C(F)(F)F)cc(C(F)(F)F)c1)c1cc(Br)ccc1O [Compound 9] | 128 | 1024 | 1024 | > 100 | essentially equipotent activity to IMD-0354 | – | – |
| O=C(Nc1ccc(F)cc1Br)c1cc(Cl)ccc1O [Compound 33] | – | – | 128 | > 200 | – | – | – |
| Cc1cc(C)cc(NC(=O)c2cc(F)ccc2O)c1 [Compound 44, N-(3,5-dimethylphenyl)-5-fluoro-2-hydroxybenzamide] | – | – | ≤ 16 | > 200 | – | – | – |
| O=C(Nc1cc(Br)cc(Br)c1)c1ccc(C(F)(F)F)cc1O [Compound 56] | 256 | 1024 | 2048 | > 200 | – | – | – |
| O=C(Nc1cc(F)cc(F)c1)c1ccc(C(F)(F)F)cc1O [Compound 54, N-(3,5-difluorophenyl)-2-hydroxy-4-(trifluoromethyl)benzamide] | 64 | 512 | 1024 | 200 | – | – | – |
| O=C(Nc1cc(C(F)(F)F)cc(C(F)(F)F)c1)c1cc(F)ccc1O [Compound 8] | 64 | 1024 | 1024 | > 200 | essentially equipotent activity to IMD-0354 | – | – |
| O=C(Nc1ccc(Br)cc1)c1cc(Cl)ccc1O [Compound 37] | 128 | 1024 | 2048 | – | – | > 200 | – |
| Cc1cc(C)cc(NC(=O)c2cc(I)ccc2O)c1 [Compound 53] | – | – | 256 | > 200 | – | – | – |
| O=C(Nc1ccccc1Cl)c1cc(Cl)ccc1O [Compound 39] | – | – | 256 | > 200 | less active | – | – |
| COc1ccc(O)c(C(=O)Nc2cc(C(F)(F)F)cc(C(F)(F)F)c2)c1 [Compound 11] | – | – | 256 | > 200 | – | – | – |
| COc1ccc(NC(=O)c2cc(Cl)ccc2O)cc1 [Compound 38] | – | – | ≤ 16 | > 200 | abolished activity | – | – |
| O=C(Nc1cc(C(F)(F)F)cc(C(F)(F)F)c1)c1cc(O)ccc1O [Compound 16, N-(3,5-bis(trifluoromethyl)phenyl)-2,5-dihydroxybenzamide] | – | – | ≤ 16 | > 200 | – | – | essentially inactive |
| O=C(Nc1cc(F)cc(F)c1)c1cc(F)ccc1O [Compound 42] | – | – | 256 | 200 | – | – | – |
| Cc1cc(C)cc(NC(=O)c2cc(Cl)cc(Cl)c2O)c1 [Compound 59, 3,5-dichloro-N-(3,5-dimethylphenyl)-2-hydroxybenzamide] | – | – | ≤ 16 | > 200 | – | – | – |
| O=C(Nc1cccc(Cl)c1)c1cc(Cl)ccc1O [Compound 40] | ≤ 16 | 256 | 1024 | > 200 | – | – | – |

| SMILES | Colistin MIC fold reduction, AB 4106 ([1]; compound at 1 μM) [fold] | Colistin MIC fold reduction, AB 4106 ([1]; compound at 3 μM) [fold] | Colistin MIC fold reduction, AB 4106 [1, 2] [fold] | MIC (AB 4106; standalone, no colistin) [µM] | Colistin potentiation activity in words, compared to IMD-0354 (AB4106 and KPB9) | MIC (AB 4106) [µM] | Colistin potentiation activity in words, AB4106 ([1]; compound at 5 μM) |
| --- | --- | --- | --- | --- | --- | --- | --- |
| Cc1ccc(O)c(C(=O)Nc2cc(C(F)(F)F)cc(C(F)(F)F)c2)c1 [Compound 12] | ≤ 16 | 256 | 512 | > 200 | – | – | – |
| Cc1cc(C)cc(NC(=O)c2cccc(Cl)c2O)c1 [Compound 58, 3-chloro-N-(3,5-dimethylphenyl)-2-hydroxybenzamide] | – | – | ≤ 16 | > 200 | – | – | – |
| Cc1ccc(NC(=O)c2cc(Cl)ccc2O)cc1C(F)(F)F [Compound 30] | – | – | 32 | > 200 | – | – | – |
| O=C(Nc1cc(F)cc(F)c1)c1cc(Br)ccc1O [Compound 45] | 256 | 512 | 1024 | > 200 | – | – | – |
| O=C(Nc1cc(C(F)(F)F)cc(C(F)(F)F)c1)c1cccc(O)c1 [Compound 7, N-(3,5-bis(trifluoromethyl)phenyl)-3-hydroxybenzamide] | – | – | – | > 200 | devoid of activity | – | – |
| O=C(Nc1cc(F)cc(F)c1)c1cc(I)ccc1O [Compound 50] | 64 | 256 | 512 | > 200 | – | – | – |
| O=C(Nc1cc(Br)cc(Br)c1)c1cc(Br)ccc1O [Compound 47] | 256 | 1024 | 1024 | > 200 | – | – | – |
| O=C(Nc1cc(Cl)cc(Cl)c1)c1cc(F)ccc1O [Compound 43] | 128 | 512 | 1024 | > 200 | – | – | – |
| O=C(Nc1cc(Cl)c(Br)c(Cl)c1)c1cc(Cl)ccc1O [Compound 41, N-(4-bromo-3,5-dichlorophenyl)-5-chloro-2-hydroxybenzamide] | – | – | 128 | > 200 | – | – | – |
| Cc1cc(C)cc(NC(=O)c2cc(Br)ccc2O)c1 [Compound 48] | – | – | 128 | > 200 | – | – | – |
| O=C(Nc1cc(Cl)cc(Cl)c1)c1ccc(C(F)(F)F)cc1O [Compound 55, N-(3,5-dichlorophenyl)-2-hydroxy-4-(trifluoromethyl)benzamide] | 256 | 1024 | 2048 | > 200 | – | – | – |
| O=C(Nc1ccc(F)c([N+](=O)[O-])c1)c1cc(Cl)ccc1O [Compound 35, 5-chloro-N-(4-fluoro-3-nitrophenyl)-2-hydroxybenzamide] | – | – | 32 | > 200 | – | – | Neither compound displayed significant activity |
| O=C(Nc1c(F)cccc1Br)c1cc(Cl)ccc1O [Compound 34] | – | – | ≤ 16 | > 200 | – | – | – |
| O=C(Nc1cc(C(F)(F)F)cc(C(F)(F)F)c1)c1cc(O)cc(Cl)c1 [Compound 3, N-(3,5-bis(trifluoromethyl)phenyl)-3-chloro-5-hydroxybenzamide] | – | – | – | > 200 | essentially equipotent activity to IMD-0354 | – | – |
| O=C(Nc1cc(Cl)cc(Cl)c1)c1cc(Cl)cc(Cl)c1O [Compound 62] | 32 | 256 | 512 | 100 | – | – | – |
| O=C(Nc1cc(Cl)cc(Cl)c1)c1cc(Br)ccc1O [Compound 46] | 32 | 256 | 512 | > 200 | – | – | – |
| O=C(Nc1cc(C(F)(F)F)ccc1C(F)(F)F)c1cc(Br)ccc1O [Compound 49] | 256 | 1024 | 2048 | 200 | – | – | – |

Source: patent US20220356147A1, “COMPOUNDS AND METHODS FOR POTENTIATING COLISTIN ACTIVITY” (University of Notre Dame du Lac, priority 2019, published 2022)
